SMILES strings stand for the structures.

In this assay the target is T1, Vitamin D3 receptor (Homo sapiens) (UniProt P11473).
T1 sequence (whole entry): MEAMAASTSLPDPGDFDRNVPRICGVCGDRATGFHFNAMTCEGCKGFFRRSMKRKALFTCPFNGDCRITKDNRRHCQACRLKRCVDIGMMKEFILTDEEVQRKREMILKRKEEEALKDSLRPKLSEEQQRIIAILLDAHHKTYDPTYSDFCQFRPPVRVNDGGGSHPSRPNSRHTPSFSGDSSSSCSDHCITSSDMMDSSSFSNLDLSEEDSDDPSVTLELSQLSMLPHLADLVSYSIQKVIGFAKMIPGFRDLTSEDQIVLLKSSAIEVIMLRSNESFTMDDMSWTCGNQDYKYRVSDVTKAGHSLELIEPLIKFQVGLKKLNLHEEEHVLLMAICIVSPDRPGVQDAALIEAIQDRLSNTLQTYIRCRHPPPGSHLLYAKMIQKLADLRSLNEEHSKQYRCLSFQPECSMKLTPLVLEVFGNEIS
As to the kind of experiment: Binding affinity to VDR relative to (1-alpha 25-(OH)2D3.
Consider `CCC(CC)(c1ccc(OC[C@@H](O)CO)c(C)c1)c1ccc(OC[C@@H](O)C(C)(C)C)c(C)c1`, for which the Activity was found to be 0.831.

The compound `CCC(CC)(c1ccc(OC[C@H](O)CO)c(C)c1)c1ccc(OC[C@@H](O)C(C)(C)C)c(C)c1` returned an Activity of 0.112. For `CCC(CC)(c1ccc(OC[C@H](O)CO)c(C)c1)c1ccc(OC[C@H](O)C(C)(C)C)c(C)c1` the value was 0.482.

Take `CCC(CC)(c1ccc(OC[C@@H](O)CO)c(C)c1)c1ccc(OC[C@H](O)C(C)(C)C)c(C)c1`: the Activity was found to be 28.3.

Values taken from ChEMBL document CHEMBL1143855, “(2S,2'R)-analogue of LG190178 is a major active isomer” (Bioorg Med Chem Lett, 2008).
